One may read the Km as the concentration of substrate that gives half-maximal velocity.

What all share (format): cell-based
Experiment [1] concerns the target T1, rASCT2 (Rattus norvegicus, UniProt D3ZJ25).
T1 construct: expressed in transfected cells; host or cells: HEK293 (ATCC CRL-11268), transient transfection
T1 sequence (D3ZJ25 1-555): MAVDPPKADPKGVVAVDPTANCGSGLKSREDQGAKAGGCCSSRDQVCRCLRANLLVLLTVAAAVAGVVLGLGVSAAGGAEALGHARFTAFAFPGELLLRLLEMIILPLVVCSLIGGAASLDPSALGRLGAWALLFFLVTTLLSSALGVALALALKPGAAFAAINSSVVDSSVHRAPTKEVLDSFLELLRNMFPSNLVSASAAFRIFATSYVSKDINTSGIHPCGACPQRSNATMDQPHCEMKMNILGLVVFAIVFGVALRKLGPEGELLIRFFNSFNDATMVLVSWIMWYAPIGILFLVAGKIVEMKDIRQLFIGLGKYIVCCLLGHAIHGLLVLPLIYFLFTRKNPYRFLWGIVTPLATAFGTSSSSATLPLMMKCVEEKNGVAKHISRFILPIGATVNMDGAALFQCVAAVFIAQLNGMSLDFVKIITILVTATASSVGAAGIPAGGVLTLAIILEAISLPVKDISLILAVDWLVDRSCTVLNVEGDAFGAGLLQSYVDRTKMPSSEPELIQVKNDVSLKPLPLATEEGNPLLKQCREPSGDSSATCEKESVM
Nature of the experiment: Electrophysiology: inhibition of leak anion current in transfected HEK293 cells. The conditions noted are these: for inhibition of the leak anion current (in words): concentration range tested up to 200 µM, Ki could not be obtained; for Km: substrate dose response of anion current, rat ASCT2-expressing HEK293 cells, read-out: apparent Km. The protocol:
(§1) Cell culture and transfection
(§2) Human embryonic kidney 293 (HEK293, ATCC CRL -11268) cells were cultured in DMEM media supplemented with 10% (v/v) fetal bovine serum (FBS), 2 mM glutamine, 1% penicillin streptomycin solution, 1 mM sodium pyruvate and non -essential amino acids. Cells were maintained at 370C in a fully humidified atmosphere containing 5% CO2. rASCT2, hASCT2, hASCT1, EAAT1, EAAT2, EAAT3, EAAT5 and YFP complementary DNAs were each used to transiently transfect HEK293 using POLYPLUS Jet-prime transfection reagent. Cells were analyzed using electrophysiological techniques 24-40 hours after transfection.
(§3) Electrophysiological techniques
(§4) Electrophysiological experiments were performed as described previously 1,2. Stock solutions of inhibitor was prepared in dimethyl sulfoxide (DMSO) up to 100 mM.
(§5) Dilutions to working concentrations were made using external buffer. The highest

Experiment [2] addresses T2, hASCT2 (Homo sapiens, UniProt Q15758).
T2 construct: expressed in transfected cells; host or cells: HEK293 (ATCC CRL-11268), transient transfection
T2 sequence (Q15758 1-541): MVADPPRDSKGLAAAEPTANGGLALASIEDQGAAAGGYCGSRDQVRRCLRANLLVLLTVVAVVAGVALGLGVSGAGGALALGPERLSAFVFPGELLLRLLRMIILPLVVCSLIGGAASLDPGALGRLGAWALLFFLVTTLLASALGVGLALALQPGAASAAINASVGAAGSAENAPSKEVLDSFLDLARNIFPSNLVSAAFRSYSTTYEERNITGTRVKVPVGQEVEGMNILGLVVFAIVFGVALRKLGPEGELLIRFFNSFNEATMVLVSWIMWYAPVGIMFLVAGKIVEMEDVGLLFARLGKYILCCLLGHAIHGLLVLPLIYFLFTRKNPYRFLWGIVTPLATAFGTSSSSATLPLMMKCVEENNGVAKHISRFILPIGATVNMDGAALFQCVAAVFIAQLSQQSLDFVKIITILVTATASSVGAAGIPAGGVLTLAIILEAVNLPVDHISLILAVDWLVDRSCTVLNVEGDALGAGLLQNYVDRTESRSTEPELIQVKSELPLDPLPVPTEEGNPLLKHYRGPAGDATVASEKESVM
The experiment is described as above. The settings on record: HEK293 cells, 0 mV, 130 mM NaSCN internal, 140 mM NaCl external; No current = no inhibition of anion leak current up to highest concentration tested (§ 20-50, || 100-400, # 1500-2500 µM); read-out: Binding affinity Ki (apparent Ki). How it is done: as §1, §2, §3, §4, §5

Experiment [3] deals with T1, rASCT2. Nature of the experiment: Inhibitor dissociation kinetics by ligand displacement with alanine (rapid solution exchange). The settings on record: 5 mM alanine rapidly applied, no inhibitor (control), 0 mV. How it is done: Fig. 2. […] (A) Electrophysiological recordings obtained after application of alanine (red trace) and increasing concentrations of Lc-BPE (black traces). The times of application of alanine or Lc-BPE are shown by a gray bar (top). (B and C) Lc-BPE inhibitor dose–response relationships for rASCT2 and hASCT2, respectively. […] Currents were normalized to the current recorded after application of 10 µM inhibitor concentration. (D) Inhibition of glutamine uptake (5 µM external concentration) in the presence of varying concentration of Lc-BPE and 5 µM glutamine measured in proteoliposomes reconstituted with purified hASCT2. […] Errors bars represent SEM from at least two biologically independent measurements. (E) Current recorded after rapid solution exchange from extracellular buffer (control, gray bar, black trace) to a solution containing buffer + 5 mM alanine (white bar). For the red trace, the cell was preincubated with 10 µM Lc-BPE (red bar, red trace) followed by rapid application of 5 mM alanine. All current recordings were performed at 0 mV in the presence of 130 mM NaSCN internal and 140 mM NaCl external (homoexchange) solutions. […]
To test this, we measured the dissociation kinetics of Lc-BPE using a ligand displacement approach. First, rASCT2-expressing cells were preincubated with a saturating solution of Lc-BPE (10 µM), and subsequently the inhibitor was displaced using a supersaturating concentration of the substrate L-alanine (5 mM) (Fig. 2 E and F).

Regarding `O=C(O[C@H]1CN[C@@H](C(=O)O)C1)c1ccc(-c2ccccc2)cc1` [Dc-BPE], the “inhibition of the leak anion current (in words)” value in experiment [1] is recorded as “too small at high compound concentrations”. The same measure, in the same setting: to `O=C(O[C@@H]1CN[C@@H](C(=O)O)C1)c1ccc(-c2ccccc2)cc1` [Dt-BPE] belongs “unspecific”. With `O=C(O[C@H]1CN[C@H](C(=O)O)C1)c1ccc(-c2ccccc2)cc1` [Lt-BPE], the Ki was 232 ± 44 µM in experiment [1] (HEK293 cells, 0 mV, 130 mM NaSCN internal, 140 mM NaCl external, No current = no inhibition of anion leak current up to highest concentration tested (§ 20-50, || 100-400, # 1500-2500 µM), read-out: Binding affinity Ki (apparent Ki)) and 205 ± 27 µM in experiment [2]. Consider `C[C@H](N)C(=O)O` [alanine, L-alanine, reference compound], for which the “rate constant of the current rise” value in experiment [3] was 24.6 ± 5.2 s⁻¹; in experiment [3] (listed as Alanine), 24 s⁻¹. In addition, the Km in experiment [1] (0 mV) came to 318 ± 17 µM. In the case of `NC(=O)CC[C@H](N)C(=O)O` [glutamine, L-glutamine, reference compound], the Michaelis-Menten constant (Km) in experiment [1] (0 mV) stood at 233 ± 41 µM.

The record behind these values is paper PMC8449414, “Rational design of ASCT2 inhibitors using an integrated experimental-computational approach” (Proceedings of the National Academy of Sciences of the …, 2021).
